Laboratory results from the Kinase Knowledgebase extract (Sharma et al. 2016).

Target: MAPK14 (human) (UniProt Q16539)
Assay: Apoptotic Activity (Eosinophils)
Settings: concentration not given here

Chain of MAPK14 (human) (Q16539 whole entry, looked up): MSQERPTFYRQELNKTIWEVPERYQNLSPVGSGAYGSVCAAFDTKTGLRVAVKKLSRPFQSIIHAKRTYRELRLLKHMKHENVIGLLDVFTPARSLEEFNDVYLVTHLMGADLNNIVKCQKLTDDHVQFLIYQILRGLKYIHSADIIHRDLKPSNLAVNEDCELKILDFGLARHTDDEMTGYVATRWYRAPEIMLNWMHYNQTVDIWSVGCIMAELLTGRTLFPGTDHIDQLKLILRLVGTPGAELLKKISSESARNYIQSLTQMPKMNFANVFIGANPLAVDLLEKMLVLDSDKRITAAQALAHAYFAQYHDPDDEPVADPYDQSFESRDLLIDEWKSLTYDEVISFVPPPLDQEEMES

apoptosis [%]	SMILES
27.7	COc1ccc2c(c1)c(CC(=O)O)c(C)n2C(=O)c1ccc(Cl)cc1
28.9	CS(=O)(=O)Nc1cc2c(cc1-c1ccc(F)c(S)c1F)C(=O)CC2
32.5	CC(C(=O)O)c1ccc(-c2ccccc2)c(F)c1 (stereo not drawn)
